Experiment [1] addresses T1, purified VDAC1 (Homo sapiens, UniProt P21796). Briefly: Microscale thermophoresis (MST). The experiment is classed as binding. The method, then: MST analysis was performed using a NanoTemper Monolith NT.115 apparatus as described previously. Briefly, purified VDAC1 was fluorescently labeled using a NanoTemper Protein labeling kit BLUE (L001, NanoTemper Technologies, Munich, Germany). A constant concentration of the protein (66 nM) was incubated with different concentrations of the indicated peptide in MST binding buffer (10 mM tricine-HCl, 100 mM NaCl, pH = 7.4) for 30 min at 37 °C in the dark. Afterwards, 3–5 µl of the samples were loaded into a monolith glass capillary (NanoTemper) and a thermophoresis analysis was performed (LED 80%, IR laser 80%).
A general note: Microscale thermophoresis detects binding through changes in fluorescence in a small temperature gradient.

Experiment [2] deals with T1, purified VDAC1. The experiment is described as follows: Glass-bound peptide array probed with purified VDAC1 and anti-VDAC1 antibodies. The experiment is classed as binding. Further details: key: +: low; ++: medium; +++: high. To be noted: glass-bound peptide array incubated 4 h with purified VDAC1 (64 nM), chemiluminescence; for Spot intensity, detected using anti-N-terminus VDAC1: antibody against VDAC1 N-terminus; for Spot intensity, detected using anti-VDAC1 internal sequence: antibody against VDAC1 amino acids 150-250. The method, then: A customized peptide array was produced by INTAVIS Peptide Services (GmbH & Co. KG, Tübingen, Germany). It comprised 768 peptide sequences derived from 19 VDAC1-interacting proteins that were arrayed on a glass slide. Each peptide was composed of 25 amino acids with an overlap of 15 amino acids with the peptides before and following it.
The interaction of purified VDAC1 with glass-bound peptide arrays was assessed by washing the slide three times, 10 min each, with TBST (150 mM NaCl, 50 mM Tris/HCl, pH 7.4, 0.1% Tween-20), followed by overnight incubation with blocking buffer (TBS, pH 7.8, containing low-fat dry milk, 2.5%, w/v) at 4 °C. Then slides were incubated with purified VDAC1 in protein-interacting buffer (20 mM HEPES, 100 mM KCl, pH,7.4, PBS) for 4 h at room temperature (RT). After washing, with TBST, slides were incubated overnight at 4 °C with anti-VDAC1 antibody against a sequence of 150–250 amino acids or against the VDAC1-N-terminus. Slides were then washed with TBST, followed by the appropriate secondary anti-HRP conjugated antibody for 2 h at RT. They were washed again with TBST and developed using enhanced chemiluminescence EZ-ECL (Biological Industries), according to the manufacturer’s instructions. The signal was captured in the dark using FUSION-FX (Vilber Lourmat) software.

For orientation: Kd means the constant that tells how readily two partners part at equilibrium.

Like-named read-outs stand apart in the source and are kept apart here. No end group written: not given here.

T1 sequence (P21796 whole entry, species assumed): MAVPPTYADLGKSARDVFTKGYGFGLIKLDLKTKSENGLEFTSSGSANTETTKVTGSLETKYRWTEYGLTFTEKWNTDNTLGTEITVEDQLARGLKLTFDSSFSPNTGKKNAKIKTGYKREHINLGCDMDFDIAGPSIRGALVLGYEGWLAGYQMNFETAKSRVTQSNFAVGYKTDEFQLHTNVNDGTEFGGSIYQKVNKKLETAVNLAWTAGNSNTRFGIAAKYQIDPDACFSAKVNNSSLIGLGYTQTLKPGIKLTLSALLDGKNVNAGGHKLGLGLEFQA

“MVVEHPEFLKAGKEPGLQIWRVEKFRQIKIWFQNRRMKWKK [2G8-Antp]” displayed a Kd at purified VDAC1 [1] of 5 µM.
For NEFGYSNRVVDLMAHMASKE [2D1], the Kd on purified VDAC1 [1] (fluorescently labeled VDAC1 66 nM, peptide 2.5-30 µM, 30 min at 37 °C, read-out: Kd) was found to be 8 µM.
“AGATSSLTPSRGPVSPSVSFQPLAR [1K9, array peptide from MAVS]”: the “Spot intensity, detected using anti-N-terminus VDAC1” value on purified VDAC1 [2] is given as “+++”.
Still for that read-out and setting: next, “RAVQHREVQGFESATFLGYFKSGLK [2G18, array peptide from gelsolin isoform b]”: “+”; “ISAMVLTKMKETAEAYLGKKVTHAV [2K10, array peptide from BiP1]”: “++”.
Still for that read-out and setting: to “LIGIPPAPRGVPQIEVTFDIDANGI [2P3, array peptide from HSP-70]” belongs “+”.
As to “ELEEIVQPIISKLYGSAGPPPTGEE [2M15, array peptide from BiP1]”, on purified VDAC1 [2], the “Spot intensity, detected using anti-N-terminus VDAC1” value is reported as “++” and the “Spot intensity, detected using anti-VDAC1 internal sequence” value was “+++”.
For “AAAATTVAWYQVSPLAARLLYPYLA [1H10, array peptide from TSPO]”, the “Spot intensity, detected using anti-VDAC1 internal sequence” value on purified VDAC1 [2] is recorded as “++”.
Take STRIQQQLGQLTLENLQMLPESEDE [2G1]: the “Spot intensity, detected using anti-N-terminus VDAC1” value at purified VDAC1 [2] was “++”.
For “EVAASAILTAQLDEELGGTPVQSRV [2I10, array peptide from gelsolin isoform b]”, the “Spot intensity, detected using anti-VDAC1 internal sequence” value on purified VDAC1 [2] is “+”.
Turning to “DQCTGLQGFLVFHSFGGGTGSGFTS [2A2, array peptide from tubulin alpha 1b]”, at purified VDAC1 [2], the “Spot intensity, detected using anti-N-terminus VDAC1” value is reported as “+”.
For the sequence FTEDELPYDDCVFGGQRLTL [2G5], at purified VDAC1 [2], the “Spot intensity, detected using anti-N-terminus VDAC1” value is “+”.
The same measure, in the same setting: to “TAFQGMLRKLDIKNEDDVKSLSRVM [2E5, array peptide from Mcl-1]” belongs “+”; to “MTEQAISFAKDFLAGGIAAAISKTA [1F12, array peptide from ANT3]”, “+”.
With “IKKKEERADLIAYLKKATNE [1D16, array peptide from cytochrome c]”, at purified VDAC1 [2], the “Spot intensity, detected using anti-N-terminus VDAC1” value is given as “++” and the “Spot intensity, detected using anti-VDAC1 internal sequence” value was “+”.
For “MGKVKVGVNGFGRIGRLVTRAAFNS [2B14, array peptide from GAPDH1]”, on purified VDAC1 [2], the “Spot intensity, detected using anti-N-terminus VDAC1” value is listed as “+++”.
Still for that read-out and setting: next, “GTATQMRQSSSWTRVFQSWWDRNLG [1A16, array peptide from BAD]”: “++”; “DDEGMGEEPSPFRGRSRSAPPNLWA [1A10, array peptide from BAD]”: “++”.
Regarding “IMKTGALLLQGFIQDRAGRMGGEAP [1A22, array peptide from BAX]”, on purified VDAC1 [2], the “Spot intensity, detected using anti-N-terminus VDAC1” value was “+++”.
Still for that read-out and setting: next, “SKLVLKALCTKVPELIRTIMGWTLD [1B9, array peptide from BAX]”: “+”; “RYGRELRRMSDEFVDSFKKGLPRPK [1A13, array peptide from BAD]”: “+”.
Still for that read-out and setting: to “KCELSSSVQTDINLPYLTMDSSGPK [2O6, array peptide from HSP-70]” belongs “+”; to “IMGWTLDFLRERLLGWIQDQGGWGL [1B11, array peptide from BAX]”, “+++”.
Same read-out and setting: next, “ALSSQHQARIEIESFYEGEDFSETL [2L3, array peptide from BiP1]”: “++”.

The record behind these values is PMC12669278, “VDAC1-interacting proteins: binding site mapping and their derived peptides induce apoptosis and multifaceted cellular effects” (Apoptosis, 2025).
